Experimental data as given in patent publication US5183828A, “Polyhydroxybenzoic acid derivatives” (priority 1990, dated 1993).
Where “and” joins values, the source holds several entries; their conditions need not be identical. Equal values may be shown once.

Assays:
[1] = free radical scavenging ability (destruction of diphenylpicrylhydrazyl), Table 7; conditions: 100 μM diphenylpicrylhydrazyl in acetone; test compound 25 μM, 2.5 μM (footnote)
From the text: It is believed that the antineoplastic activity of the compounds of this invention is due in parts to their ability to scavenge free-radicals. Additionally, the compounds of this invention are cancer protective agents and this utility also may be a manifestation of their free-radical scavenging capability. Free-radical scavenging agents may also be useful in detoxifying mammals in whom an excess of free radicals is a cause and/or result of the toxicity. Other possible uses of free radical scavengers are to inhibit protaglandin transformation, leucotriene interconversion and lipogenesis, to act as inflammatory modulators and as food additive or preservatives to prevent lipid oxidation. The free radical scavenging ability of the compounds of the invention was determined by measuring the destruction of the stable free radical, diphenylpicrylhydrazyl, in the presence of the test compound in a manner similar to that reported by […] and Herzmann, Naturwiss, 47, 133-134 (1960). […] The test compound was added at a final concentration of 25 μM and the rate of reduction of absorpotion at […] was observed. Table 7 below gives the free radical scavenging abilities of the compounds of this invention expresses as the initial rate of decrease in optical density units/min.

[2] = system: arachidonic acid induced ear edema; assay: arachidonic acid induced ear edema assay, Table 10; assay type: in vivo, Mice; conditions: Experiment 1, 2 mg total dose, topical; for Mean Increase in Weight of Inflammed Ear (± S.E.): positive control 17.0 ± 0.6, p = .000
Procedure: The compounds of this invention because of their ability to scavenge free-radicals in vivo are capable of modulating inflammation as set forth in the following protocol: Mice received the test compound topically to each side of the right ear one hr prior to the inflammatory challenge, at which time they were challenged (except for the negative control) with 10 microliter of a 2 mg/20 microliter solution of arachidonic acid applied to each side of the right ear. One hour post-challenge, the animals were sacrificed, the right ears removed, and an 8 mm disc punched from each. These discs were then weighed. The following table gives the results of this experiment.

Δ^5-lipoxygenase = target: T1, Δ^5-lipoxygenase (Rattus norvegicus, UniProt P12527); assay: ability to inhibit Δ^5-lipoxygenase; assay type: biochemical; conditions: RBL-1 cell supernatant
T1 construct: supernatant fraction of lysed rat basophilic leukemia (RBL-1) cells; endogenous in cells; host or cells: RBL-1 cells, 49,000 g supernatant of homogenate
T1 sequence (P12527 1-673): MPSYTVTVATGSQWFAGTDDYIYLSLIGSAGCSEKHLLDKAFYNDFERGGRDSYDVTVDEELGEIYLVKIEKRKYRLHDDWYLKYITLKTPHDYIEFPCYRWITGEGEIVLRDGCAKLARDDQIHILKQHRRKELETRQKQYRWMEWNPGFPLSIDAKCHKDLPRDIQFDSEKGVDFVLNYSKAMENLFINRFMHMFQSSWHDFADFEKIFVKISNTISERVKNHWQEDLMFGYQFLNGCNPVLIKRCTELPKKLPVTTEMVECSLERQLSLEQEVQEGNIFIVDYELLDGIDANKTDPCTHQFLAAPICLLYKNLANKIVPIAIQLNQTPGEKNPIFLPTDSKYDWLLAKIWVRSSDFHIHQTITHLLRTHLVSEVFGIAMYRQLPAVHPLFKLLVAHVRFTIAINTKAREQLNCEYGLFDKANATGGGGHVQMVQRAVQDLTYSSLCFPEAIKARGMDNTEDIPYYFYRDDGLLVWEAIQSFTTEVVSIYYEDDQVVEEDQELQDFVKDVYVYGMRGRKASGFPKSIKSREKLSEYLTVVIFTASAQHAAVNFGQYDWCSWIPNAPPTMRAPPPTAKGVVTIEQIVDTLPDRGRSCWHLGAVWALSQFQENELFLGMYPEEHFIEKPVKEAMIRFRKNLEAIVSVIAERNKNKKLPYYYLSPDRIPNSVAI
Procedure: This enzyme is believed to initiate the synthesis of slow reacting substance of […]), an important mediator in the pathogenesis of asthma. Thus, a drug capable of inhibiting this enzyme would also help to prevent asthmatic attacks. In this determination, Δ^5 -lipoxygenase was derived from the supernatant fraction of lysed rat basophilic leukemia (RBL-1) cells. […] The Δ^5 -lipoxygenase was derived from RBL-1 cells which were lysed by homogenization in ice-cold buffer (50 mM Tris-HCl buffer, pH 7.2, containing 1 mM EDTA and 14 uM indomethacin). The homogenate was centrifuged at 4 ° C. at 49,000 g for 20 min and the resulting supernatant fraction was used as the source of Δ^5 -lipoxygenase. The enzyme was assayed at 37° using 6.7 uM (0.39 uCi/ml) [1-14C]arachidonic acid as the substrate in 50 mM Tris-HCl buffer, pH 7.2, containing 1 mM gluthatione, 3 mM CaCl2, 14 uM indomethacin, and 0.25 to 0.50 mM EDTA. […] The effect of compounds on Δ^5 -lipoxygenase activity was determined by preincubating the enzyme for 10 min at 30° in the presence or absence of various concentrations of the drug prior to addition of substrate.

L1210 leukemia = assay: antitumor activity in L1210 leukemia (percent increase in survival time), Table 2; assay type: in vivo, mice; conditions: 8 days
Procedure: Testing of the compounds of this invention against L-1210 lymphoid leukemia were carried out as follows: L-1210 leukemia was maintained by weekly passage of 10^5 L-1210 cells intraperitoneally into DBA/2 mice. Diluted ascitic fluid, 0.1 ml. (10^5 cells), was administered ip to female B6D2 F1 mice weighing about 20 g. Drugs were administered ip 24 hours after tumor transplantation and injections were continued daily for a total of eight days. A group of control mice receiving only the injection medium were maintained. Table 2 which follows gives the antitumor activity against L-1210 leukemia for certain compounds of this invention. In the table, column 1 gives the name of the compound, column 2 the dose in mg./kg., and column 3 the percent increase in survival time over controls at each dose level.

L-1210 Leukemia = assay: activity vs L-1210 leukemia (T/C % survival time), Table 3; assay type: in vivo, mice; conditions: >130 significant, hydrochloride
From the text: 3,4-Dihydroxybenzamidoxime and 3,4,5-trihydroxybenzamidoxime were subjected to a further series of tests against various transplanted tumors in mice according to the following protocols:
For L-1210 lymphoid leukemia, 20 grams CDF1 or BDF1 mice […] ip with 10^5 leukemia cells. The drug was given one day after tumor inoculation continued for an additional eight days. The mean survival time for the treated animal was compared to that of the control group. In the table, column 1 gives the name of the compound, column 2 the dose levels, and column 3 treated over control percent survival time. (In other words, a figure of 175 indicates a 75% increase in survival time.)

P388 Leukemia = assay: activity vs P388 leukemia (T/C % survival time), Table 6; assay type: in vivo, mice; conditions: five treatments, >130 significant
Procedure: The following protocol was used:
CDF1 mice were injected ip with 10^6 cells The drug was administered in the first day after tumor inoculation and continued daily for five treatments. The mean survival time of the treated group compared to the non-treated control group equals T/C×100=T/C percent.

P-388 = assay: antileukemia activity of nitriles vs P-388, Table 8; assay type: in vivo
From the text: (§1) Table 8 which follows gives anti-tumor data vs L-1210 and P-388 leukemia for these novel nitriles.

L1210 = assay: antileukemia activity of nitriles vs L1210, Table 8; assay type: in vivo
From the text: as §1

With Cl.N=C(N)c1cc(O)c(O)c(O)c1 [3,4,5-trihydroxybenzamidine.HCl, 3,4,5-trihydroxybenzamidine-HCl] the “initial rate of decrease in optical density (518 nm)” value [1] was 4.912 units/min, the “Percent Inhibition vs. positive control” value [2] was 24% and the “Mean Increase in Weight of Inflammed Ear (± S.E.)” value [2] was 13.0 ± 0.3 mg. For the same molecule, the inhibition at 10 µM (Δ^5-lipoxygenase) was 75%, the ILS at 200 mg/kg (L1210 leukemia; Mus musculus, L1210, 192 h, 200 mg/kg ip daily) was 43.5% and the ILS at 300 mg/kg (L1210 leukemia; Mus musculus, L1210, 192 h, 300 mg/kg ip daily) was 10.2%.
For Cl.NC(=NO)c1cc(O)c(O)c(O)c1 [3,4,5-trihydroxybenzamidoxime.HCl, 3,4,5-Trihydroxybenzamidoxime hydrochloride], the “initial rate of decrease in optical density (518 nm)” value [1] was 0.929 units/min, the “Percent Inhibition vs. positive control” value [2] was 44% and the “Mean Increase in Weight of Inflammed Ear (± S.E.)” value [2] was 9.5 ± 0.3 mg. The inhibition at 1 µM (Δ^5-lipoxygenase; 1 uM) was 24%, the inhibition at 10 µM (Δ^5-lipoxygenase) was 90% and the “t/c % (mean survival time)” value (L-1210 Leukemia; 25 mg/kg) was 136% and 121%. The “t/c % (mean survival time)” value (L-1210 Leukemia; 50 mg/kg) was 138% and 137%, the “t/c % (mean survival time)” value (L-1210 Leukemia; 100 mg/kg) was 152% and 137% and the “t/c % (mean survival time)” value (L-1210 Leukemia; 200 mg/kg) was 212% and 182%. The “T/C % (mean survival time)” value (P388 Leukemia; 50 mg/kg daily, hydrochloride) was 142% and 138% and 141%, the “T/C % (mean survival time)” value (P388 Leukemia; 100 mg/kg daily, hydrochloride) was 150% and 154% and 138% and 148% and the “T/C % (mean survival time)” value (P388 Leukemia; 200 mg/kg daily, hydrochloride) was 155% and 177%. The “T/C % (mean survival time)” value (P388 Leukemia; 300 mg/kg daily) was 163%, the “T/C % (mean survival time)” value (P388 Leukemia; 400 mg/kg daily) was “toxic” and the “% Increase in Survival Time” value (L1210 leukemia; 196 mg/kg ip daily) was “toxic”. The ILS at 59 mg/kg (L1210 leukemia; Mus musculus, L1210, 192 h, 59 mg/kg ip daily) was 90%, the ILS at 132 mg/kg (L1210 leukemia; Mus musculus, L1210, 192 h, 132 mg/kg ip daily) was 54.5% and the ILS at 220 mg/kg (L1210 leukemia; Mus musculus, L1210, 192 h, 220 mg/kg ip daily) was 63.6%. It also gave an ILS at 275 mg/kg (L1210 leukemia; Mus musculus, L1210, 192 h, 275 mg/kg ip daily) of 30.6%.
For N#Cc1cc(O)c(O)c(O)c1 [3,4,5-trihydroxybenzonitrile], the “% Increase in Survival Time” value (P-388; 50 mg/kg) was 15% and 20%, the “% Increase in Survival Time” value (P-388; 200 mg/kg) was 26% and 39% and the “% Increase in Survival Time” value (P-388; 400 mg/kg) was 26%. For the same molecule, the “% Increase in Survival Time” value (L1210; 118 mg/kg) was 34.0% and the “% Increase in Survival Time” value (L1210; 157 mg/kg) was 28.0%.
